These results are taken from patent US10010585B2, “Methods of treating vestibular schwannoma and reducing hearing or neurite loss caused by vestibular schwannoma” (Massachusetts Eye and Ear Infirmary, priority 2014, dated 2018).

“And” between values parts separate entries of the source, which are not always exact repeats. Identical values can stand only once. Like-named read-outs stand apart in the source and are kept apart here.

One data set concerns NF2 VSs. The note with it: NF2 VS patients; cited from earlier work.
For data set [1], the system named is primary VS cells. As to the kind of experiment: TUNEL cell death assay in primary VS cultures. The format is cell-based, human. The note with it: 48 hours. How it is done:
Rate of apoptosis in 6 VS cultures was assessed and correlated with tumor growth in vivo and tumor volume. […] Apoptosis was measured using terminal deoxynucleotidyl transferase dUTP nick end labeling (TUNEL, Roche Applied Sciences, NY) following manufacturer's instructions. Briefly, immunofluorescence protocol was followed as described under ‘Immunofluorescence,’ until fixations, then the cells were washed with PBS thrice and incubated in 1% Triton-X for 10 minutes on shaker. The cells were washed with PBS once and incubated in TUNEL mix for 1 hour at 37° C., then for 30 minutes at RT on shaker. The cells were then incubated in rhodamine phalloidin (Life Technologies, NY, 1:40) and Hoechst stain for 20 minutes, washed with PBS thrice and mounted onto slides for imaging. TUNEL and Hoechst stained nuclei were counted in >3 fields and the ratio of TUNEL positive to Hoechst positive nuclei was used to determine apoptosis rate in vitro. A positive control of 10 minutes-DNAse (Roche Applied Sciences, NY) treatment prior to TUNEL labeling was utilized.
(§1) For siRNA treatment, cultured primary VS cells or HEI-193 cells were placed in antibiotic and serum free media overnight. The next day, the cells were incubated with Life Technologies siRNAs targeting NF-κB genes RELA and NF-κB1, with control cells being treated with vehicle only (Lipofectamine RNAiMax), for 5 days. Some cultures were also incubated with a fluorescent random Oligo (Life Technologies) along with vehicle to assess transfection efficiency. siRNA experiments were performed in antibiotic and serum free media.
BAY11 or curcumin, diluted in 100% DMSO, were mixed to the accurate concentrations in warmed media and applied to the cultures (with DMSO concentration in media being 1% maximum), alongside a no-treatment control receiving media alone with appropriate corresponding DMSO levels.
After 48 hours of treatment, primary VS and Schwann cultures were fixed for BrdU staining, to visualize proliferation, or TUNEL staining, to visualize cell death.
After 48 hours of treatment with salicylates, primary VS and SC cultures were fixed for BrdU staining, to visualize proliferation, or TUNEL staining, to visualize cell death.

In a further data set the test system is COX-2. The note with it: 48 hours, VS culture media. How it is done: Prostaglandin (PTG) E2 was assayed in the media of VS cultures using the Prostaglandin E2 Parameter Assay Kit (R&D Systems, KGE004B). The media was collected after 48 hours of treatment from non-treated and treated cultured cells. Manufacturer's instructions were closely followed.
(§2) The cultures were incubated with the drugs for 48 hours. To label proliferating cells, BrdU was added 20 hours before fixation. pH was measured in the media after drug addition to ensure no significant deviations.

The subject of data set [2] is primary SCs. As to the kind of experiment: BrdU proliferation assay in primary Schwann cell cultures. The note with it: 48 hours. The format is cell-based, human. How it is done: (§3) Proliferation rate of 12 VS cultures was assessed and correlated with the tumor volume in the latest gadolinium enhanced T1-weighted MRI scan prior to surgical resection, and with tumor growth in vivo, measured as changes in the tumor's volume over time calculated from serial MRI scans. Tumor growth was standardized by dividing the growth rate by the initial tumor volume. Separate analyses were performed for solid tumors, which generally account for approximately 96% of VSs (Charabi et al., 1994), versus all studied tumors, which included 4 out of 13 total tumors with a visible cystic component, because cystic components could misrepresent true tumor volume (Charabi et al., 1994). To determine the level of cell proliferation in the cultures, Bromodeoxyuridine (BrdU) was added to the cells at a concentration of 10 μg/ml 20 hours before the cells were fixed. The cells were kept in the dark after the addition of BrdU Immunofluorescence protocol was followed as described under ‘Immunofluorescence,’ and cell and nuclear membranes were permeablized by incubation in 1% Triton-X for 10 minutes and by incubation in 2N Hydrochloric acid for 20 minutes, respectively, after fixation. Primary antibody against BrdU (AbD Serotec, NC, 1:200) and anti-rat IgG (Life Technologies, NY, 1:1000) were used. BrdU- and Hoechst-stained nuclei were counted in 3-5 fields and the ratio of BrdU positive to Hoechst positive nuclei was used to determine the proliferation rate in vitro.
(§4) Cultured human primary VS cells, primary SCs and HEI-193 cells were treated with NF-κB inhibitors BAY11-7082 (BAY11) or curcumin for 48 hours (Santa Cruz Biotechnology). BAY11 or curcumin, diluted in 100% DMSO, were mixed to the accurate concentrations in warmed media and applied to the cultures (with DMSO concentration in media being 1% maximum), alongside a no-treatment control receiving media alone with appropriate corresponding DMSO levels. Experiments were performed in media fortified with antibiotics and serum (same formulation as described in Example 1 for culturing cells).
(§5) After 48 hours of treatment, primary VS and Schwann cultures were fixed for BrdU staining, to visualize proliferation, or TUNEL staining, to visualize cell death. The same methodology as described in Example 1 was utilized. Cleaved caspase 3 staining, another apoptosis marker to reinforce findings using TUNEL, was conducted using an antibody against cleaved caspase 3 following the ‘immunofluorescence’ protocol outlined in Example 1.
as §2
(§6) After 48 hours of treatment with salicylates, primary VS and SC cultures were fixed for BrdU staining, to visualize proliferation, or TUNEL staining, to visualize cell death. The same methodology as described in Example 1 was utilized.

Data set [3] relates to primary VS cells. In words: BrdU proliferation assay in primary VS cultures. The format is cell-based, human. The note with it: 48 hours. Here is the method:
as §3, with “vitro. […]” for “vitro.”
as §4, §5, §2, §6
To understand cross-talk between HGF and VEGF-A pathway, cultured VS cells were incubated with Life Technologies silencer select siRNAs targeting VEGFA (s461) or MET (s8700). To understand whether HGF signaling contributed to VS proliferation, cultured VS cells were treated with MET inhibitor SU11274 (Sigma-Aldrich, MO, #S9820). Seventy-two hours after siRNA treatment or 12 hours after treatment with SU11274 (2 μM), cells were incubated with 10 μg/mL BrdU (Life Technologies, NY, # B23151) for 20 hours before fixation.

The subject of data set [4] is HEI-193 NF2 VS cell line. In words: BrdU proliferation assay in HEI-193 cells. The note with it: 48 hours. The format is cell-based, human. How it is done: as §3
(§7) The same methodology as described in Example 1 was utilized for primary VS and SC cultures. Cultures were treated with NF-κB inhibitors approximately after 2 weeks of culturing. HEI-193 cell line was a gift from Dr. Giovannini at the House Ear Institute (Hung et al., 2002a).
as §1, §4, §5

Data set [5] concerns HEI-193 NF2 VS cell line. As to the kind of experiment: TUNEL cell death assay in HEI-193 cells. The format is cell-based, human. The note with it: 48 hours. How it is done:
(§8) Rate of apoptosis in 6 VS cultures was assessed and correlated with tumor growth in vivo and tumor volume. Two out of the six VS had cystic components. Apoptosis was measured using terminal deoxynucleotidyl transferase dUTP nick end labeling (TUNEL, Roche Applied Sciences, NY) following manufacturer's instructions. Briefly, immunofluorescence protocol was followed as described under ‘Immunofluorescence,’ until fixations, then the cells were washed with PBS thrice and incubated in 1% Triton-X for 10 minutes on shaker. The cells were washed with PBS once and incubated in TUNEL mix for 1 hour at 37° C., then for 30 minutes at RT on shaker. The cells were then incubated in rhodamine phalloidin (Life Technologies, NY, 1:40) and Hoechst stain for 20 minutes, washed with PBS thrice and mounted onto slides for imaging. TUNEL and Hoechst stained nuclei were counted in >3 fields and the ratio of TUNEL positive to Hoechst positive nuclei was used to determine apoptosis rate in vitro. A positive control of 10 minutes-DNAse (Roche Applied Sciences, NY) treatment prior to TUNEL labeling was utilized.
as §7, §1, §4, §5

For data set [6], the system named is primary SCs. As to the kind of experiment: TUNEL cell death assay in primary Schwann cell cultures. Type of data set: cell-based, human. The note with it: human, 48 h. Here is the method:
as §8, §4, §5

Consider `CS(=O)(=O)CCNCc1ccc(-c2ccc3ncnc(Nc4ccc(OCc5cccc(F)c5)c(Cl)c4)c3c2)o1` [Lapatinib, lapatinib], for which, in the data set on NF2 VSs, the “patients with decrease in tumor size / volume” value is recorded as “approximately 24%” and the “patients with hearing improvement” value is approximately 31%.

Consider `O=C([O-])c1ccccc1O.[Na+]` [NaSal, sodium salicylate], for which the cell death rate with primary VS cells [1] (5 mM) turned out to be 3.3±2.3%. Also, the “secreted PTG levels, of NT cells” value in the data set on COX-2 (1 mM) came out at 3.8%; in the data set with COX-2 (5 mM), 32.2%. The “proliferation, of the NT cells” value in the data set on primary SCs [2] (5 mM) was 104.4±13.2%; with primary SCs [2] (10 mM) it was 64.9±18.9%; with primary VS cells [3] (1 mM) it was 18% and 18.9±5.0%; with primary VS cells [3] (5 mM), 25.4±11.1%; with primary VS cells [3] (10 mM) it was 20.6±11.2%.

On to `COc1cc(/C=C/C(=O)CC(=O)/C=C/c2ccc(O)c(OC)c2)ccc1O` [curcumin], for which the normalized proliferation rate was 95.0±1.6% in the data set with HEI-193 NF2 VS cell line [4] (5 μM); 0.4±0.4% in the data set with HEI-193 NF2 VS cell line [4] (20 μM); 2.3±2.3% in the data set on HEI-193 NF2 VS cell line [4] (50 μM); 85.3±25.7% with primary SCs [2] (5 μM); 31.0±18.3% with primary SCs [2] (20 μM); 3.14% in the data set with primary SCs [2] (50 μM). Further, the cell death rate in the data set with HEI-193 NF2 VS cell line [5] (5 μM) is listed as 0.3±0.1%; in the data set on HEI-193 NF2 VS cell line [5] (20 μM), 77.3±8.4%; in the data set on HEI-193 NF2 VS cell line [5] (50 μM), 97.8±1.5%; in the data set with primary VS cells [1] (5 μM), 11.6±6.3%; in the data set on primary VS cells [1] (20 μM), 1.8±1.0%; in the data set with primary VS cells [1] (50 μM), 73.3±6.3%. Also, the cell death rate in the data set with primary SCs [6] (20 μM) worked out at 1.7±0.4%; in the data set with primary SCs [6] (50 μM), 52.2±14.9%. Further, in the data set with primary SCs [6] (5 μM), the “apoptosis / cell death rate” value is given as 1.3±0.3%. Further, the “proliferation, of the non-treated cells” value is recorded as 141.8%±95.2% with primary VS cells [3] (5 μM) and 23.0±20.9% with primary VS cells [3] (20 μM).

Take bevacizumab: in the data set with NF2 VSs, the “patients with decrease in tumor size / volume” value is given as 55% and the “patients with hearing improvement” value was 57%.
